Experimental findings from patent publication US20220047687A1, “CHEMICAL SCALPEL” (FUNDACIÓN INSTITUTO DE INVESTIGACIÓN SANITARIA FUNDACIÓN …, priority 2019, published 2022) are described below.

In data set [1] the test system is abdominal organs and peritoneum. The experiment in a line: Survival and necropsy of healthy rats after peritoneal washing (groups A, B). Particulars: group A, collagenase 37 U/mL; 1 died after surgery due to evisceration. From the text: During this phase, a series of survival experiments were established with various work groups and subgroups to learn about the co-adjuvant or enhancing role of collagenase in the treatment of peritoneal tumors with chemotherapeutic agents such as mitomycin C:
Each group initially consisted of 6 rats (2×3). In the initial design, 3 animals were sacrificed after 15 days and the rest were left until the conditions of the animals required them to be sacrificed (subcutaneous tumor growth >0.5 cm in diameter) or a maximum of 2 months.

For data set [2], the system named is peritoneal carcinomatosis (DHD cells). The data set is described as follows: Survival and necropsy of rats with carcinomatosis after peritoneal washing (groups D, E, F). Particulars: group F, collagenase 37 U/ml, 3 animals. Type of data set: in vivo, rat. The method, then: (§1) The procedure was performed 2 times in the TCQ group, the first time with collagenase and after 2 minutes peritoneal washing with mitomycin C at the different concentrations to be tested was repeated. […] Blood was also collected from all the animals before sacrificing them, the blood was processed within the hour following its extraction to obtain plasma and to analyze, on one hand, the existence of the mutated KRAS oncogene (mutation in codon 12 of exon 1 expressed by DHD cells), and on the other hand the existence of collagenase traces or residues in blood after the peritoneal washes. A digital PCR was used for the KRAS oncogene localization study. For the collagenase trace study, the anonymized samples were sent to Lyposmol laboratories for the performance of specific anti-MMP-1 and anti-MMP-2 ELISAS.
Each group initially consisted of 6 rats (2×3).

In data set [3] the test system is peritoneal adhesions (polypropylene mesh). The data set is described as follows: Peritoneal adhesion model group 1 (10 small polypropylene mesh pieces): mesh release. In kind it is in vivo, rat. From the text: Intervention of 5 6-week old Wistar rats of a total of 10 rats belonging to a first group (Group 1). Prior inhalation anesthesia with Forane, the animal being shaved, and aseptic measures being implemented, a minimal opening is made in the skin and the abdominal wall to implant 10 small pieces of polypropylene mesh, five on each side of the midline. They are cut into small 0.5 cm^2 pieces previously wetted with pss (physiological saline solution (0.9% ClNa).
After that (two days later than the first intervention), intervention is performed on the remaining 5 Wistar rats of group 1, and identical follow-up of weight and wound progression, with the administration of analgesia for the next 72 hours.
Four months after the application of the intraperitoneal prostheses, the animals are operated on again for the phase final of the experiment. Before that blood is drawn. First, the experiments are performed on rats belonging to group 1. The study is randomized in pairs and single-blind (investigator). […] Next, the results obtained in each of the operated rats are collected: • 1. R13, 295 g: Dictation: “To the naked eye no meshes are found. At the mesentery and terminal ileum of the cecum there is an area that is folded over and apparently comprises small pieces of mesh. There are no adhesions to the closure of the abdominal wall. Non-traumatic entry.”

The next data set has as its system mutated KRAS oncogene. The experiment in a line: Digital PCR of KRAS in plasma. Type of data set: in vivo, rat. Particulars: plasma. As for the experimental part:
as §1
To analyze the presence of mutated KRAS in the blood of the different groups by means of digital PCR, DNA was extracted from at least 2 ml of plasma/group by means of the QlAamp Circulating Nucleic Acid kit according to the manufacturer's data and the results were those listed in Table 4.

A further data set deals with MMP-1. The data set is described as follows: ELISA for collagenase residues in blood, anti-MMP-1. In kind it is in vivo, rat. Particulars: after treatment and the follow-up period, all animals. As for the experimental part:
as §1
In general terms: An ELISA detects its analyte on a solid surface through an enzyme-linked reagent.

Another data set relates to MMP-2. The data set is described as follows: ELISA for collagenase residues in blood, anti-MMP-2. Type of data set: in vivo, rat. Particulars: after treatment and the follow-up period, all animals. The method, then: as §1

Entries after “also recorded” stand apart in the source; their conditions may differ.

As for Collagenase, the survival in data set [1] is reported as 4 out of 5. Moreover, the “Observations (necropsy)” value in data set [2] (1 month) is given as “Localized carcinomatoses in intestine; also recorded: No adhesions”; in data set [2] (2 months), “Localized carcinomatoses in abdomen; also recorded: with nodules in liver. No adhesions”. For the same substance, the “mesh and adhesion release after washing (dictation)” value in data set [3] (0.05% in PBS, 20 ml, 20 minutes, 37° C., single rats R11, R12, R17, R18, R19 in block order) was “one of the balls of hypochondrium loops breaks up with slight pulling and several pieces of mesh (3) are released; also recorded: mesh seen in the omentum is readily released with slight pulling. Another mesh in the suprapubic fat is dissected and released without damaging the fatty aggregate, 6 pieces of mesh being released with digital dissection and without bleeding; also recorded: One of the meshes contained in the ball of the terminal ileum separates completely with slight pulling; also recorded: Mesh separates from the hepatic omentum with slight pulling (there are two meshes, one of them is not readily separated successfully)”. In addition, in data set [3] (group 1, blind study randomized in pairs, 0.05%, PBS control 8%), the “efficacy in extracting meshes” value is 42%. The “Mutated KRAS event no.” value is listed as 0 with mutated KRAS oncogene (group A (healthy rats, collagenase 37 U/mL)) and 1 in the data set with mutated KRAS oncogene (group F (DHD + collagenase 37 U/mL)). Moreover, the “collagenase residues in blood, MMP-1 ELISA” value in the data set on MMP-1 was “negative”. Also, the “collagenase residues in blood, MMP-2 ELISA” value in the data set with MMP-2 is on record as “negative”.
